Assays:
[1] = system: Cam3.II^rev parasite cultures, trophozoite (25–30 h.p.i.) stage; experiment: 6-h pulse exposure of synchronized trophozoites, SYBR Green I growth inhibition in next cycle; type: cell-based; details: Plasmodium falciparum, read-out: P. falciparum 6-h Trophozoite Stage IC50 (Cam3.II)
Method: Assessment of the killing activity of ML901 in pulsed exposure assays was performed using a modification of a previously described procedure. Briefly, cultures of Cam3.II^rev trophozoites (1.5% final hematocrit; 1.4% final parasitemia) were pre-synchronized to a 5-h window at trophozoite or schizont stage. Compounds were serially diluted in complete medium in v-bottomed microplates. Parasites were exposed to ML901 for 3 h, 6 h, 9 h or 24 h before washing 5 times with 200 μl of complete medium, then returned to culture conditions. For the no wash samples, ML901 was left in the culture until the assay point. Growth inhibition was assessed in the second cycle by labelling with the DNA-binding dye, SYBR Green I. Quantification of total DNA level reflects cytostatic effects as well as cytocidal effects. Old media (140 μl) was firstly replaced with fresh media, followed by the addition of lysis buffer (20 mM Tris, pH 7.5, 5 mM EDTA, 0.008% w/v saponin, 0.08% v/v Triton X-100) containing SYBR Green I. Plates were incubated at room temperature for 2 h and fluorescence readings were taken using a microplate reader (BMG LABTECH).

HsTyrRS = biological target: T1, HsTyrRS (Homo sapiens, UniProt P54577); experiment: Differential scanning fluorimetry (DSF) of HsTyrRS; type: binding; details: for thermal stabilisation of recombinant HsTyrRS (in words): with all substrates; for HsTyrRS Tm: with sulfamate, tyrosine and tRNA, apo 49.0 ± 0.2
T1 sequence (P54577 1-528): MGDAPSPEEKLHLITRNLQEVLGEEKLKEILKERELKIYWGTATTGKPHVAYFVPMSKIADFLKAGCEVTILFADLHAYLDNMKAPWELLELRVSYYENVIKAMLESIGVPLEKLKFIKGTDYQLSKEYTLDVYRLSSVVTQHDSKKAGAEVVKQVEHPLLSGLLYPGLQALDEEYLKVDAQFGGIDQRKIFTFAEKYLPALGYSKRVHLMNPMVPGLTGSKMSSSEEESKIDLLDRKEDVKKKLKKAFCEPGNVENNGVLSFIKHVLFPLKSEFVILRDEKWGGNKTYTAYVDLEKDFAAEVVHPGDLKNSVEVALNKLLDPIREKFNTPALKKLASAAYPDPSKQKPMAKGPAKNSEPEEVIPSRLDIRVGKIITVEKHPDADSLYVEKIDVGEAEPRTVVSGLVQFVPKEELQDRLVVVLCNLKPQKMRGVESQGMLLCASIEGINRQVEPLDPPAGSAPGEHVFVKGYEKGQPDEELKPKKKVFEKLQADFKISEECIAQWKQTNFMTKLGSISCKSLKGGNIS
Method: The effect on ML471 and analogues on the thermal stability of TyrRS enzymes was assayed as previously described. […] SYPRO Orange (Sigma-Aldrich; 5,000X concentrate in DMSO) was added to the reaction mixture at a final concentration of 5X. 25 μL of the sample was added into each well of a 96-well qPCR plate (Applied Biosystems). The plate was sealed and analysed using StepOnePlus Real-Time PCR system (Applied Biosystems). The samples were heated from 20°C to 90°C with a 1% continuous gradient. The thermal unfolding curve was plotted as the first derivative curve of the raw fluorescence values. The melting temperature (Tm), defined as the peak of the first derivative curve, was used to assess the thermal stability of protein-ligand complexes.

Dd2-B2 parasites = experiment: Minimum inoculum of resistance (MIR) selection; type: cell-based, Plasmodium falciparum; details: for IC50: DD2, read-out: in-house mean IC50; for IC50 fold shift (clones): 3 x IC50
Method: MIR studies were conducted for ML901 and ML471 using a modified “Gate keeper assay” [34]. […] For ML901, the parasites (starting parasite inoculums of 1x10^7 or 1x10^8 in triplicate) were subjected to pressure at 3 x IC50, with recrudescence on days 12–14. […] The different pressure regimens reflect the standard protocols in the Fidock lab used at the times of analysis. Wells were monitored daily by smear during the first seven days to ensure parasite clearance, during which media was changed daily. Thereafter, cultures were screened three times weekly by flow cytometry and smearing, and the selection maintained a consistent drug pressure over 60 days. […] Whole-genome sequencing analysis identified CNVs in chromosome 8 segments, always containing the PfTyrRS locus, consistent with our earlier evidence of this as the target of ML901 [16]. Single nucleotide polymorphism (SNP) filtering was lowered to 0.5 allelic balance (AB) but yielded no point mutations in the core genome.

Primary hepatocytes = experiment: Toxicity to primary hepatocyte host cells in the liver stage assay; type: cell-based, human; details: for IC50: Homo sapiens, Hepatocyte
Method: (§1) Activity against liver stage parasites was performed using a modification of published procedures. Briefly, cryopreserved human primary hepatocytes (NF175: H1500.H15B+ Lot No. HC0-6, TebuBio or NF135: F00995-P Lot No. IRZ, BioIVT) were thawed and seeded at 18,000 cells per well in collagen-coated 384-well microtiter plates in medium containing 10% heat inactivated fetal bovine serum (hiFBS). Cells were cultured at 37°C in 5% CO2. For NF175, medium was replaced by fresh medium containing 10% hiFBS, 5 h post plating. For NF135, medium was replaced by medium containing 0.2% BSA, 24 h post plating. 48 h post plating, salivary glands from Plasmodium-NF175 or NF135-infected Anopheles stephensi mosquitoes were dissected, added to the hepatocytes (10,000 per well/ NF175; or 12,500 per well/ NF135) and allowed to infect for 3 hours. Sporozoites were then aspirated, and compounds diluted in medium containing 10% hiFBS or 0.2% BSA, were added to the hepatocytes. Medium containing 10% hiFBS or 0.2% BSA and compounds was refreshed daily for four days. Hepatocytes were fixed with ice-cold methanol and samples were blocked with 10% hiFBS in PBS. Schizonts were stained with rabbit anti-HSP70 in 10% hiFBS for 1–2 h followed by incubation with a mixture of secondary goat anti-rabbit AlexaFluor 594 antibody and 4′,6-diamidine-2′-phenylindole dihydrochloride (DAPI) in 10% hiFBS for 30 min. Samples were washed with PBS containing 0.05% Tween 20 between different steps. Cells were imaged on a PicoExpress high content imager, and images were analysed automatically using CellReporterXpress software. Data were analysed by logistic regression using a four-parameter (Hill equation) model and a least-squares method to find the best fit.

[2] = system: P. falciparum liver stage schizont (NF135); experiment: Liver stage schizont assay in primary human hepatocytes (NF135); type: cell-based; details: Plasmodium falciparum, Hepatocyte, 96 h, four days
Method: as §1

[3] = host cells of the NF135 experiment
[4] = host cells of the NF175 experiment

Compound	IC50 [1] [nM]	ΔTm at 200 µM (HsTyrRS; 200 μM sulfamate, ATP, tyrosine, yeast tRNA, 37°C 4 h, read-out: HsTyrRS binding (DSF) Delta Tm) [°C]	thermal stabilisation of recombinant HsTyrRS (in words) (HsTyrRS)	HsTyrRS Tm (HsTyrRS; ATP) [°C]	IC50 (Dd2-B2 parasites; Plasmodium falciparum) [nM]	IC90 (Dd2-B2 parasites; Plasmodium falciparum, DD2, read-out: mean IC90) [nM]	IC50 shift (Dd2-B2 parasites; selection with 2x10^5 parasites, 10 x IC50)	toxicity against the primary hepatocyte host cells (in words) (Primary hepatocytes)	IC50 (Primary hepatocytes; [3]) [nM]	IC50 (Primary hepatocytes; [4]) [nM]	IC50 [2] [nM]	HsTyrRS binding (DSF) Delta Tm (HsTyrRS; 200 μM sulfamate, ATP, tyrosine, yeast tRNA, 37°C 4 h) [°C]	IC50 fold shift (clones) (Dd2-B2 parasites; selection with 10^7 parasites)	IC50 fold shift (clones) (Dd2-B2 parasites; selection with 10^8 parasites)
Nc1ncnc2c1c(C(F)(F)F)nn2[C@@H]1O[C@H](COS(N)(=O)=O)[C@@H](O)[C@H]1O [ML107]	150 ± 33													
CC(C)c1nn([C@@H]2O[C@H](COS(N)(=O)=O)[C@@H](O)[C@H]2O)c2ncnc(N)c12 [ML471, ((2R,3S,4R,5R)-5-(4-amino-3-isopropyl-1H-pyrazolo[3,4-d]pyrimidin-1-yl)-3,4-dihydroxytetrahydrofuran-2-yl)methyl sulfamate]	29.1 ± 3	0.06 ± 0.04	not stabilised	49.0 ± 0.2	1.45	1.99	9-16 xIC50	no toxicity	> 100	> 10000	5.5			
CC(C)Oc1nn([C@@H]2O[C@H](COS(N)(=O)=O)[C@@H](O)[C@H]2O)c2ncnc(N)c12 [ML723]	220 ± 31													
Nc1ncnc2c1c(OC(F)F)nn2[C@@H]1O[C@H](COS(N)(=O)=O)[C@@H](O)[C@H]1O [ML901]	135 ± 14		not stabilised	49.4 ± 0.1	2.6 ± 0.05				> 100	> 10000	2.9 ± 0.9	0.4 ± 0.1	2-3 x IC50	3-6 x IC50

From paper PMC11671014 (PLOS Pathogens, 2024)
